Data on 15 molecules can be found in PubChem BioAssay (NCI).

What all share (assay): growth of human tumour cells (NCI), 48 h
The test system of assay [1] is OVCAR-4 ovarian.
Assay [2] concerns SR leukemia.
In assay [3] the test system is OVCAR-5 ovarian.
The test system of assay [4] is U251 CNS.
Assay [5] deals with NCI-H522 lung.
The test system of assay [6] is OVCAR-8 ovarian.
Assay [7] relates to K-562 leukemia.
Assay [8] concerns OVCAR-3 ovarian.
The subject of assay [9] is SK-MEL-28 melanoma.
Assay [10] relates to DU-145 prostate.

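Cells were grown in 96-well plates and exposed to each compound for 48 hours at five concentrations; endpoints were interpolated linearly between bracketing concentrations, or set to the highest concentration if not reached. At the GI50, growth is halved. TGI is the concentration that stops growth completely.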 Where only a bound is given, the exact number is not on record here.

As for `CC1(C)CC(=O)c2c(oc3cc(O)c(O)cc23)C1`, the TGI was 43.4 µM in assay [1]; > 100 µM in assay [2]; 56.9 µM in assay [3]; > 100 µM in assay [4]; 24.3 µM in assay [5]; 55.6 µM in assay [6]. The TGI in assay [7] was > 100 µM.
Take `COC(=O)c1cc2c3c(ccc2[nH]1)N(C(=O)c1cc2c4c(ccc2[nH]1)N(C(=O)c1cc2c5c(ccc2[nH]1)N(C(N)=O)CC5)CC4)CC3`: the TGI was > 100 µM in assay [1]; > 28.9 µM in assay [8]; > 100 µM in assay [2]; > 100 µM in [3]; > 21.9 µM in assay [4]; > 100 µM in [9]. For the same molecule, the TGI in assay [6] is > 30.8 µM; in assay [7], > 100 µM.
For `COc1nc2c(c(O)c(C)c(=O)n2OC2OC(COC(C)=O)C(OC(C)=O)C(OC(C)=O)C2OC(C)=O)c(=O)n1C` (stereo not drawn), the TGI in assay [1], in assay [2], in assay [3], in [4], in assay [5] and in [9] was > 100 µM each time. The TGI in assay [6] and in assay [7] was > 100 µM each time.
On to `O=C(/C=C/c1cn(-c2ccccc2)nc1-c1ccc([N+](=O)[O-])cc1)c1ccc(Cl)cc1`, for which the GI50 is 2.76 µM in assay [2]; > 100 µM in assay [3]; 6.41 µM in [5]; 6.33 µM in [6]; 0.0883 µM in assay [7]. Also, the TGI was > 100 µM in [2]; > 100 µM in assay [3]; > 100 µM in [5]; > 100 µM in assay [6]; 2.73 µM in assay [7].
Turning to `NC(=O)c1c[se]c(C2OC(COP(=O)(O)CP(=O)(O)OCC3OC(n4cnc5c(N)ncnc54)C(O)C3O)C(O)C2O)n1` (stereo not drawn), the TGI in assay [1], in assay [8], in assay [2], in [3], in assay [4] and in [5] was > 100 µM each time. For the same molecule, the TGI in [9], in [6] and in [7] was > 100 µM in each case.
Turning to `CCCCCCCCCC(=O)Oc1cccc2onc(C)c12`, the TGI in assay [1], in assay [8], in [2], in assay [3], in assay [4] and in assay [5] was > 100 µM each time. Besides, the TGI in [9], in [6] and in [7] was > 100 µM each time.
Take `CC[P+]1(CC)CCCC1`: the TGI in assay [1], in [8], in assay [3], in [4], in assay [9] and in [6] was > 100 µM throughout. In addition, the TGI in assay [7] was > 100 µM.
Turning to `O=[N+]([O-])C1C2C=CC(C2)[C@H]1c1ccc(Cl)cc1Cl` (stereo partly drawn), the TGI in assay [2], in assay [3], in assay [4], in assay [9], in assay [6] and in assay [7] was > 100 µM each time.
For `Cc1ccc(-n2c3c(c4c(CN5CCOCC5)c(O)ccc42)CCc2ccccc2C3=O)cc1`, the GI50 was 71.2 µM in assay [8]; > 100 µM in assay [10]; > 100 µM in assay [3]; > 100 µM in assay [4]; 34.5 µM in assay [5]; 90.7 µM in [6]. For the same molecule, in assay [7], the GI50 was 25.8 µM. Further, the TGI in assay [8], in assay [10], in assay [3], in [4], in assay [5] and in [6] was > 100 µM throughout. In addition, the TGI in assay [7] is > 100 µM.
`c1ccc(NC[Si]23OCCN(CCO2)CCO3)cc1`: the TGI in assay [8], in assay [2], in assay [3], in assay [4], in [5] and in assay [9] was > 100 µM each time. Besides, the TGI in [6] and in assay [7] was > 100 µM each time.
With `CC(=O)[CH-]C(=O)c1ccccc1.CC(=O)[CH-]C(=O)c1ccccc1.[CH2-]CCC.[CH2-]CCC.[Sn+4]`, the GI50 in [8] was 1.3 µM; in assay [3], 2.07 µM; in [4], 1.32 µM; in assay [5], 0.157 µM; in assay [6], 1.36 µM; in assay [7], 0.331 µM. Further, the TGI in [8] was 2.62 µM; in [3], 3.59 µM; in assay [4], 2.65 µM; in assay [5], 0.327 µM; in assay [6], 3.1 µM; in assay [7], 10.3 µM.
In the case of `CC(C)(C)c1cc(CCC(=O)Nc2ccc(Cl)cc2Cl)nc(N)n1`, the TGI in assay [1], in [8], in assay [2], in assay [3], in [4] and in assay [9] was > 100 µM throughout. Besides, the TGI in assay [6] and in [7] was > 100 µM in each case.
With `C[N+](C)=c1nc(N2CCOCC2)ss1`, the TGI in assay [2], in assay [3], in assay [4], in assay [5], in [9] and in assay [6] was > 100 µM throughout. Also, the TGI in assay [7] was > 100 µM.
Consider `COc1ccc(CC2=NCCc3cc(OC)c(OC)cc32)cc1Br`, for which the TGI was > 100 µM in [1]; 91.1 µM in [2]; 8.32 µM in [3]; > 100 µM in [4]; 86.6 µM in [5]; > 100 µM in [9]. Also, the figures for the TGI in assay [6] and in assay [7] were > 100 µM and 93.2 µM, respectively.
Turning to `CCOC1=C2NC(Cc3ccc(F)cc3)=NC2C(=O)c2ccccc21` (stereo not drawn), the TGI in [8] was > 100 µM; in [3], > 100 µM; in assay [4], > 100 µM; in assay [5], 46.1 µM; in assay [9], 67.8 µM; in assay [6] it was 61.9 µM. In addition, the TGI in assay [7] was > 100 µM.
